Measured values published in patent US9499551B2, “Substituted pyrrolo[2,3-b]pyridines for treating cancer or inflammatory diseases” (Confluence Life Sciences, Inc., priority 2014, dated 2016).

Target: T1, TAK1-TAB1 (Homo sapiens, UniProt O43318)
T1 sequence (O43318 with tags, fused parts or gaps limits assumed): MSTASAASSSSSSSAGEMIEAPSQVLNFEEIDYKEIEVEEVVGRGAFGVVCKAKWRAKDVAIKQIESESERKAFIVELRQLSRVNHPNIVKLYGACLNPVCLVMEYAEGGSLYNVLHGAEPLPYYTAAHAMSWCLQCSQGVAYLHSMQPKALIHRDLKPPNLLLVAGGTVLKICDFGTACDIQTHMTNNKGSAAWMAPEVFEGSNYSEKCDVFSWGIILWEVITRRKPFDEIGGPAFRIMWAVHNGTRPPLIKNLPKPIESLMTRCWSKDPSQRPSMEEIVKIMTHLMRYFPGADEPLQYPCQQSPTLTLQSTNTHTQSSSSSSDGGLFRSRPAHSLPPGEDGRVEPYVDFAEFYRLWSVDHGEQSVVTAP
Assay: TAK1-TAB1 binding inhibitory potency (LanthaScreen competitive binding assay, kinase tracer-236)
Conditions: 10 nM TAK1-TAB1, 100 nM kinase tracer-236; read-out: TAK1-Tab Inhibition IC50
From the text: TAK1-TAB1 Binding Inhibitory Potency:
The ability of candidate compounds to interact with TAK1-TAB1 is quantitated by a competitive binding assay using the LanthaScreen technology developed by Life Technologies. This assay is based on the binding of a proprietary, Alexa Fluor® 647-labeled, ATP-competitive kinase inhibitor (kinase tracer-236) to the TAK1-TAB1 construct in presence of a europium-conjugated antibody, resulting in a FRET (fluorescence resonance energy transfer) signal. Displacement of the kinase tracer by compound results in a lower emission ratio upon excitation of the europium chelate. Candidate compounds are designed as potential irreversible inhibitors of TAK1-TAB1, capable of ligating to an active site cysteine residue. The time dependent nature of irreversible inhibition is investigated by performing the binding assay with and without a pre-incubation of compound and TAK1-TAB1.
The inhibitory potency of candidate compounds is measured in 20 mM HEPES pH 7.5, 10 mM MgCl2, 0.01% BSA, 0.0005% Tween-20, and 2% DMSO in the presence of 10 nM TAK1-TAB1, 2 nM Eu-anti-his antibody, and 100 nM kinase tracer-236 using a 384-well plate format. Background signal is defined in the absence of TAK1-TAB1 and uninhibited signal is defined in the presence of vehicle (2% DMSO) alone. Compounds were evaluated in an 11 point dose-response ranging from 20 μM to 0.34 nM. The binding assays are performed under two conditions to evaluate time dependence of inhibition. For the pre-incubation assay, TAK1-TAB1 and Eu-anti-his antibody are preincubated with compound or vehicle for two hours prior to the addition of kinase tracer. The non-preincubated assay is run in which TAK1-TAB1 and Eu-anti-his antibody are added to a mixture of compound and kinase tracer. IC50 values of compounds are determined using a 4 parameter logistical fit of emission ratio as a function of the concentration of compound. […]

IC50	SMILES
≤ 1 µM	O=C(/C=C/CO)Nc1c[nH]c2ncc(-c3ccccc3)cc12 [Example 239, (E)-4-hydroxy-N-(5-phenyl-1H-pyrrolo[2,3-b]pyridin-3-yl)but-2-enamide]
≤ 1 µM	NC(=O)/C=C/c1c[nH]c2ncc(-c3ccc(OCC4CC4)nc3)cc12 [Example 327, (E)-3-(5-(6-(cyclopropyl-methoxy)pyridin-3-yl)-1H-pyrrolo[2,3-b]pyridin-3-yl)acrylamide]
> 1 µM	O=C(Nc1c[nH]c2ncc(-c3ccccc3)cc12)C1=CCCC1 [Example 232, N-(5-phenyl-1H-pyrrolo[2,3-b]pyridin-3-yl)cyclopent-1-enecarboxamide]
≤ 1 µM	NC(=O)/C=C\c1c[nH]c2ncc(-c3ccc(C(O)c4nccs4)cc3)cc12 (centres unmarked) [Example 323, (Z)-3-(5-(4-(hydroxy(thiazol-2-yl)methyl)phenyl)-1H-pyrrolo[2,3-b]pyridin-3-yl)acrylamide]
≤ 1 µM	NC(=O)/C=C/c1c[nH]c2ncc(-c3cc(C(F)(F)F)cc(C(F)(F)F)c3)nc12 [Example 316, (E)-3-(2-(3,5-bis(trifluoromethyl)phenyl)-5H-pyrrolo[2,3-b]pyrazin-7-yl)acrylamide]
≤ 1 µM	CC#CC(=O)Nc1c[nH]c2ncc(-c3ccccc3)cc12 [Example 237, N-(5-phenyl-1H-pyrrolo[2,3-b]pyridin-3-yl)but-2-ynamide]
≤ 1 µM	CON(C)C(=O)c1ccc(-c2cnc3[nH]cc(/C=C/C(N)=O)c3c2)cc1 [Example 329, (E)-4-(3-(3-amino-3-oxoprop-1-en-1-yl)-1H-pyrrolo[2,3-b]pyridin-5-yl)-N-methoxy-N-methyl-benzamide]
≤ 1 µM	CC(C)(O)c1cccc(-c2cnc3[nH]cc(/C=C/C(N)=O)c3n2)c1 [Example 308, (E)-3-(2-(3-(2-hydroxypropan-2-yl)phenyl)-5H-pyrrolo[2,3-b]pyrazin-7-yl)acrylamide]
≤ 1 µM	Cc1cc(C2CCC(c3cnc4[nH]cc(/C=C/C(N)=O)c4c3)CC2)cc(C(F)(F)F)c1 (centres unmarked) [Example 358, (E)-3-(5-(4-(3-methyl-5-(trifluoromethyl)phenyl)cyclohexyl)-1H-pyrrolo[2,3-b]pyridin-3-yl)acrylamide]
≤ 1 µM	CC(C)(O)c1ccc(-c2cnc3[nH]cc(/C=C/C(N)=O)c3n2)cc1 [Example 309, (E)-3-(2-(4-(2-hydroxypropan-2-yl)phenyl)-5H-pyrrolo[2,3-b]pyrazin-7-yl)acrylamide]
≤ 1 µM	NC(=O)/C=C/c1c[nH]c2ncc(-c3cc(Cl)cc(C(F)(F)F)c3)cc12 [Example 347, (E)-3-(5-(3-chloro-5-(trifluoromethyl)phenyl)-1H-pyrrolo[2,3-b]pyridin-3-yl)acrylamide]
≤ 1 µM	CC(C)c1ccccc1-c1cnc2[nH]cc(/C=C/C(N)=O)c2n1 [Example 359]
≤ 1 µM	CC(=O)c1ccc(-c2cnc3[nH]cc(/C=C/C(N)=O)c3c2)cc1C [Example 339, (E)-3-(5-(4-acetyl-3-methylphenyl)-1H-pyrrolo[2,3-b]pyridin-3-yl)acrylamide]
≤ 1 µM	CC(=O)c1cc(-c2cnc3[nH]cc(/C=C/C(N)=O)c3c2)ccn1 [Example 315, (E)-3-(5-(2-acetylpyridin-4-yl)-1H-pyrrolo[2,3-b]pyridin-3-yl)acrylamide]
≤ 1 µM	NC(=O)/C=C/c1c[nH]c2ncc(C=O)cc12 [Example 356, (E)-3-(5-formyl-1H-pyrrolo[2,3-b]pyridin-3-yl)acrylamide]
≤ 1 µM	NC(=O)/C=C/c1c[nH]c2ncc(N3CC(NC(=O)C4CCCC4)C3)cc12 [Example 321, (E)-N-(1-(3-(3-amino-3-oxoprop-1-en-1-yl)-1H-pyrrolo[2,3-b]pyridin-5-yl)azetidin-3-yl) cyclopentane-carboxamide]
> 1 µM	NC(=O)/C=C/c1c[nH]c2ncc(-c3ccc(N4CCCC4)nc3)nc12 [Example 254, (E)3-(2-(6-(pyrrolidin-1-yl)pyridin-3-yl)-5H-pyrrolo[2,3-b]pyrazin-7-yl)acrylamide]
≤ 1 µM	CC(C)(O)c1cccc(-c2cnc3[nH]cc(/C=C(\C#N)C(N)=O)c3c2)c1 [Example 361, (E)-2-cyano-3-(5-(3-(2-hydroxypropan-2-yl)phenyl)-1H-pyrrolo[2,3-b]pyridin-3-yl)acrylamide]

IC50	SMILES
≤ 1 µM	CC(C)Cn1cc(-c2cnc3[nH]cc(/C=C/C(N)=O)c3c2)ccc1=O [Example 326, (E)-3-(5-(1-isobutyl-6-oxo-1,6-dihydropyridin-3-yl)-1H-pyrrolo[2,3-b]pyridin-3-yl)acrylamide]
≤ 1 µM	CC(=O)c1ccc(-c2cnc3[nH]cc(/C=C/C(N)=O)c3n2)cc1C [Example 340, (E)-3-(2-(4-acetyl-3-methylphenyl)-5H-pyrrolo[2,3-b]pyrazin-7-yl)acrylamide]
≤ 1 µM	NC(=O)/C=C/c1c[nH]c2ncc(N3CCN(C(=O)Oc4ccccc4)CC3)cc12 [Example 302, (E)-phenyl 4-(3-(3-amino-3-oxoprop-1-en-1-yl)-1H-pyrrolo[2,3-b]pyridin-5-yl)piperazine-1-carboxylate]
> 1 µM	C#CC(=O)Nc1c[nH]c2ncc(-c3ccccc3)cc12 [Example 238, N-(5-phenyl-1H-pyrrolo[2,3-b]pyridin-3-yl)propiolamide]
≤ 1 µM	CN1CCC(C(=O)c2ccc(-c3cnc4[nH]cc(/C=C/C(N)=O)c4n3)cc2)CC1 [Example 333, (E)-3-(2-(4-(1-methylpiperidine-4-carbonyl)phenyl)-5H-pyrrolo[2,3-b]pyrazin-7-yl)acrylamide]
≤ 1 µM	NC(=O)/C=C/c1c[nH]c2ncc(-c3ccc(Oc4ccc(F)cc4)cc3)cc12 [Example 344, (E)-3-(5-(4-(4-fluorophenoxy)phenyl)-1H-pyrrolo[2,3-b]pyridin-3-yl)acrylamide]
≤ 1 µM	CCC(=O)c1ccc(-c2cnc3[nH]cc(/C=C/C(N)=O)c3c2)c(C)c1 [Example 313, (E)-3-(5-(2-methyl-4-propionylphenyl)-1H-pyrrolo[2,3-b]pyridin-3-yl)acrylamide]
≤ 1 µM	COCCN(C)C(=O)c1cnc2[nH]cc(/C=C/C(N)=O)c2c1 [Example 357, (E)-3-(3-amino-3-oxoprop-1-en-1-yl)-N-(2-methoxyethyl)-N-methyl-1H-pyrrolo[2,3-b]pyridine-5-carboxamide]
> 1 µM	N#CC(C#N)=Cc1c[nH]c2ncc(-c3ccccc3)cc12 [Example 242, 2-((5-phenyl-1H-pyrrolo[2,3-b]pyridin-3-yl)methylene) malononitrile]
≤ 1 µM	NC(=O)/C=C/c1c[nH]c2ncc(-c3ccc4c(c3)C(=O)CC4)cc12 [Example 352, (E)-3-(5-(3-oxo-2,3-dihydro-1H-inden-5-yl)-1H-pyrrolo[2,3-b]pyridin-3-yl)acrylamide]
≤ 1 µM	NC(=O)/C=C/c1c[nH]c2ncc(-c3ccc(Oc4ccccc4)nc3)cc12 [Example 345, (E)-3-(5-(6-phenoxypyridin-3-yl)-1H-pyrrolo[2,3-b]pyridin-3-yl)acrylamide]
≤ 1 µM	CC(C)(O)c1ccc(-c2cnc3[nH]cc(/C=C/C(N)=O)c3n2)cn1 [Example 305, (E)-3-(2-(6-(2-hydroxypropan-2-yl)pyridin-3-yl)-5H-pyrrolo[2,3-b]pyrazin-7-yl)acrylamide]
≤ 1 µM	NC(=O)/C=C/c1c[nH]c2ncc(-c3ccc(C(O)c4nccs4)cc3)cc12 (centres unmarked) [Example 322, (E)-3-(5-(4-(hydroxy(thiazol-2-yl)methyl)phenyl)-1H-pyrrolo[2,3-b]pyridin-3-yl)acrylamide]
≤ 1 µM	NC(=O)/C=C/c1c[nH]c2ncc(-c3ccc(N4CCCCC4)nc3)cc12 [Example 363, (E)-3-(5-(6-(piperidin-1-yl)pyridin-3-yl)-1H-pyrrolo [2,3-b]pyridin-3-yl)acrylamide]
≤ 1 µM	CC(=O)c1cccc(N2CCN(c3cnc4[nH]cc(/C=C/C(N)=O)c4c3)CC2)c1 [Example 346, (E)-3-(5-(4-(3-acetylphenyl)piperazin-1-yl)-1H-pyrrolo[2,3-b]pyridin-3-yl)acrylamide]
≤ 1 µM	CCC(C)(O)c1ccc(-c2cnc3[nH]cc(/C=C/C(N)=O)c3c2)cc1 (centres unmarked) [Example 310, (E)-3-(5-(4-(2-hydroxybutan-2-yl)phenyl)-1H-pyrrolo[2,3-b]pyridin-3-yl)acrylamide]
≤ 1 µM	Cc1nc2[nH]cc(/C=C/C(N)=O)c2cc1-c1cccnc1 [Example 330, (E)-3-(6-methyl-5-(pyridin-3-yl)-1H-pyrrolo[2,3-b]pyridin-3-yl)acrylamide]
